Laboratory results reported in patent US10513503B2, “Use of 3-deoxyanthocyanidins for treating occular diseases” (BIOPHYTIS, priority 2015, dated 2019).

Legend:
[1] = tested on: primary cultures of retinal pigment epithelium (RPE) of adult pigs; test: In vitro assay of the photoprotective activity: phototoxicity induced by A2E and blue light, cell survival; assay type: cell-based, pig; settings: for viability at 20 µM / viability at 5 µM: Sus scrofa; for viability at 20 µM / viability at 5 µM / Cell survival: A2E 30 μM, blue light 470 nm 50 min, survival after 24 h, living cells vs control wells without A2E x100, A2E controls without molecule 39.7±3.7
Method: A cell model of phototoxicity induced by the association of a treatment by the A2E and of an illumination by blue light on primary cultures of RPE, wherein cell survival was measured, was used. This model uses primary cultures of retinal pigment epithelium of adult pigs.
This model makes it possible in particular to carry out the screening of molecules aimed at the discovery of new candidates for a treatment of the dry form of AMD. This model is closer to the “physiological” situation than the cell lines commonly used in literature, because the cells used contain protective substances provided by the diet of the animal and are therefore not in a situation of “deficiency”, and their disturbance is caused by the adding of A2E into the culture medium.
The cell cultivated in 96-well plates were treated for 48 hours with the compounds to be tested (in a 5 mM solution in the DMSO) in such a way as to obtain final concentrations of 5 or 20 μM), of which the last 19 hours in the presence of A2E (final concentration 30 μM). […] Cell survival is measured after 24 hours.
Cell survival and death are detected 24 hours after the induction of the phototoxicity by colouration of the cells with Hoechst (a nuclear marker) and with ethidium (a marker of the nuclei of dead cells). Images of each well are acquired on a fluorescent microscope equipped with a motorised stage controlled by the Metamorph software, and cell survival is quantified by a dedicated quantification program. The experiments are conducted on 96-well microplates in quadruplicate and each experiment is reproduced at least four times.
The results are expressed in the form of a ratio representing the number of living cells in the wells treated by the molecules to be tested divided by the number of living cells in the control wells (treated with the dilution medium without A2E) and multiplied by 100.

[2] = tested on: genetically modified mouse model (ABCA4 and Rdh8 inactivated); test: In vivo assay of the photoprotective activity in mice (blue light exposure after intravitreal injection); settings: unilateral intravitreal injection, 100-130 μM in the vitreous, blue light 4000 lux 1 h
Excerpt: A genetically modified mouse model developed by Maeda et al. (Invest Ophthalmol. Vis. Sci., 2009, 50, 4917-4925) was used to test the photoprotective activity of the compounds of the invention.
In this mouse model, two genes involved in the visual pigment cycle (ABCA4 and Rdh8, see FIG. 1) are inactivated, which results in an early accumulation of A2E in the eyes. This animal model is therefore representative of the human pathology.
Mice aged 7 weeks were used to carry out the unilateral intravitreal injections of solubilised diosmetinidin ([…]) in DMSO and diluted in PBS (1.2:100), in order to obtain a concentration in the vitreous of 100-130 μM. DMSO diluted in the PBS was injected into the control animals. After 24 h in the dark, the mice were subjected to an exposure to blue light (4000 lux, 1 h).

RPE cells [3] = settings: literature, in words; cited from earlier work
RPE cells [4] = settings: literature, in words; cited from earlier work; remark: listed apart in the source

Compound	viability at 20 µM ([1]; 20 μM compound for 48 h) [%]	Cell survival ([1]; 20 μM compound for 48 h) [%]	also measured
COc1ccc(-c2ccc3ccc(OC)cc3[o+]2)c(O)c1	39.2 ± 7.4	–	–
COc1ccc2ccc(-c3ccc(OC)c(OC)c3)[o+]c2c1	48.7 ± 5.5	–	–
COc1ccc(-c2ccc3ccc(O)cc3[o+]2)cc1OC	46.1 ± 4.7	–	–
COc1ccc(-c2ccc3ccc(O)cc3[o+]2)c(O)c1 [Compound 1, 2′,7-dihydroxy-4′-methoxy-flavylium chloride]	89.9 ± 4.9	–	–
COc1ccc(-c2ccc3ccc(O)cc3[o+]2)c(O)c1O [Compound 2, 2′,3′,7-trihydroxy-4′-methoxy-flavylium chloride]	86.7 ± 2.3	–	–
COc1ccc(-c2ccc3ccc(O)cc3[o+]2)cc1O [Compound 3, 3′,7-dihydroxy-4′-methoxy-flavylium chloride]	77 ± 2.7	–	–
Oc1ccc(-c2ccc3c(O)cc(O)cc3[o+]2)cc1 [Compound 4, 4′,5,7-trihydroxy-flavylium chloride (apigeninidin)]	89.5 ± 3.5	–	viability at 5 µM ([1]; 5 μM compound for 48 h): 71 ± 3.6%
COc1ccc(-c2ccc3c(O)cc(O)cc3[o+]2)cc1O.[Cl-] [Compound 5, 3′,5,7-trihydroxy-4′-methoxy-flavylium chloride (diosmetinidin)]	90.8 ± 3.6	–	viability at 5 µM ([1]; 5 μM compound for 48 h): 84.5 ± 1.4%; electroretinograms (wave A, wave B electrical activity) ([2]; 7 days later): protective effect; survival of the photoreceptors (number of layers of photoreceptors) ([2]; FIG. 4): good survival
Oc1cc(O)c2ccc(-c3cc(O)c(O)c(O)c3)[o+]c2c1 [Compound 6, 3′,4′,5′,5,7-pentadroxy-flavylium chloride (tricetinidin)]	99.3 ± 3.3	–	viability at 5 µM ([1]; 5 μM compound for 48 h): 74.9 ± 4.2%
Oc1cc(O)c2ccc(-c3ccc(O)c(O)c3)[o+]c2c1 [Compound 7, 3′,4′,5,7-tetrahydroxy-flavylium chloride (luteolinidin)]	93.6 ± 6.7	–	viability at 5 µM ([1]; 5 μM compound for 48 h): 72 ± 4.4%
Oc1cc(O)c2cc(O)c(-c3ccc(O)c(O)c3)[o+]c2c1 [Cyanidin, cyanidin]	–	92.9 ± 1.9	Cell survival ([1]; 5 μM compound for 48 h): 56.4 ± 8.8%; photoprotector effect ([1]; at 20 μM, in words): substantial photoprotector effect; effectiveness of the photoprotection ([1]; at a lower concentration (5 μM), in words): substantially reduced; photoprotective effect on the RPE cells (RPE cells [3]): photoprotective effect; effectiveness for cell survival of the RPE cells (RPE cells [4]): ineffectiveness
Oc1cc(O)c2cc(O)c(-c3cc(O)c(O)c(O)c3)[o+]c2c1 [Delphinidin, delphinidin]	–	57.8 ± 5.6	Cell survival ([1]; 5 μM compound for 48 h): 40.5 ± 6.2%; photoprotective effect on the RPE cells (RPE cells [3]): photoprotective effect; effectiveness for cell survival of the RPE cells (RPE cells [4]): ineffectiveness
Oc1ccc2cc(O)c(-c3ccc(O)c(O)c3)[o+]c2c1 [Fisetinidin, fisetinidin]	–	39.3 ± 3.2	–
Oc1ccc(-c2ccc3c(O)cc(O)c(O)c3[o+]2)cc1O [Gossypetinidin, gossypetinidin]	–	36.5 ± 14.4	–
COc1cc(-c2[o+]c3cc(O)cc(O)c3cc2O)cc(OC)c1O.[Cl-] [Malvidin, malvidin]	–	51.5 ± 6.9	photoprotective effect on the RPE cells (RPE cells [3]): contrary; effectiveness for cell survival of the RPE cells (RPE cells [4]): ineffectiveness
COc1cc(-c2[o+]c3cc(O)cc(O)c3cc2O)cc(O)c1O [Petunidin, petunidin]	–	67.2 ± 6.9	effectiveness for cell survival of the RPE cells (RPE cells [4]): ineffectiveness
Oc1ccc(-c2[o+]c3cc(O)c(O)c(O)c3cc2O)cc1O [Quercetagetinidin, quercetagetinidin]	–	54.3 ± 6.6	–
guibourtinidin	–	42.8 ± 6.9	–
